Patent US6403626B1, “Benzimidazole derivatives” (Synaptic Pharmaceutical Corporation, priority 1994, dated 2002)
Like-named read-outs stand apart in the source and are kept apart here.

Key:
[1] = target: α2C Human Adrenergic Receptor (Homo sapiens, UniProt P18825); test: Equilibrium competition binding, [3H] rauwolscine, membranes of transfected LM(tk-) cells
[2] = target: T1, α1B Human Adrenergic Receptor (Homo sapiens, UniProt P35368); test: Equilibrium competition binding, [3H] prazosin, membranes of transfected LM(tk-) cells
T1 construct: The entire coding region of α1B(1563 bp); expressed in transfected cells; host or cells: LM(tk-) cells
T1 sequence (P35368 1-520): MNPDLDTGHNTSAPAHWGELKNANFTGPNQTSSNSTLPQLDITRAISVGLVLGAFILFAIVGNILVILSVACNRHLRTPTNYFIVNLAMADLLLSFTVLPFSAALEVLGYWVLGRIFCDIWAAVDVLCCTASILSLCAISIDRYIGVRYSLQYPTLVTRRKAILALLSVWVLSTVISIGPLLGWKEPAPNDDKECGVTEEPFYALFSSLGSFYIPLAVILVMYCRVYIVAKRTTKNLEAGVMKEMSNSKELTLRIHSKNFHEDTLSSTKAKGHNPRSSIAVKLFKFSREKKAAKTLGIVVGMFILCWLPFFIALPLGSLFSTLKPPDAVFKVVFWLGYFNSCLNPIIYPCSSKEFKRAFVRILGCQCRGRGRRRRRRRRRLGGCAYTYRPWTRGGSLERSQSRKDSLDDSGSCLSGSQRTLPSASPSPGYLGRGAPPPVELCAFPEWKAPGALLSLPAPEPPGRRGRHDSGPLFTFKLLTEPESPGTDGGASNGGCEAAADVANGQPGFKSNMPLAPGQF
Description: (§1) Binding and functional assays were performed using stably transfected human alpha adrenergic receptors. Equilibrium competition binding assays were performed with membrane preparations from cultured LM(tk-) cells stably transfected with the cloned human adrenoceptor subtypes except for α2b, which was expressed in Y-1 cells, using [^3H] prazosin for α1 receptors and [^3H] rauwolscine for α2 receptors.
(§2) Transfected cells from culture flasks were scraped into 5 ml of 5 mM Tris-HCl, 5 mM EDTA, pH 7.5, and lysed by sonication. The cell lysates were centrifuged at 1000 rpm for 5 min at 4° C., and the supernatant was centrifuged at 30,000×g for 20 min at 4° C. The pellet was suspended in 50 mM Tris-HCl, 1 mM MgCl2, and 0.1% ascorbic acid at pH 7.5. Binding of α2 antagonist [^3H] rauwolscine ([…]) to membrane preparations of LM(tk-) cells was done in a final volume of 0.25 ml and incubated at 37° C. for 20 min. Nonspecific binding was determined in the presence of 10 μM phentolamine. The reaction was stopped by filtration through GF/B filters using a cell harvester.
The construct involved ligating the full-length containing EcoRI brainstem cDNA fragment from ZapII into the expression vector. The stable cell lines were selected as described above.

[3] = target: T2, α1C Human Adrenergic Receptor (Homo sapiens, UniProt P35348); test: as above
T2 construct: expressed in transfected cells; host or cells: LM(tk-) cells
T2 sequence (P35348 1-466): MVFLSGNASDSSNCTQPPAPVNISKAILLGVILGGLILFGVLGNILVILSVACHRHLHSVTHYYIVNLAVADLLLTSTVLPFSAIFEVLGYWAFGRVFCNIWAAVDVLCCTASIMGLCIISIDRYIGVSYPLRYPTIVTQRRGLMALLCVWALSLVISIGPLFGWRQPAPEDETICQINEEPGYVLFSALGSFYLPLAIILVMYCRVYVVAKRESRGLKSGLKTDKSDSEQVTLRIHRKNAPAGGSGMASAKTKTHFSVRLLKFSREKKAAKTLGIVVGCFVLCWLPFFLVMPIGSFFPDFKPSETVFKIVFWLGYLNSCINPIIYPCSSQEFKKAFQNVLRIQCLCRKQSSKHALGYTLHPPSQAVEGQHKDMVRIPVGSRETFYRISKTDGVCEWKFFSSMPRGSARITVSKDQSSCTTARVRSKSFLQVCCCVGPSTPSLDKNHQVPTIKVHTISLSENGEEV
Description: as §1, §2
The construct involved ligation three partial overlapping fragments: a 5′ 0.6 kb HincII genomic clone, a central 1.8 EcoRI hippocampal cDNA clone, and a 3′ 0.6 Kb PstI genomic clone. The hippocampal cDNA fragment overlaps with the 5′ and 3′ genomic clones so that the HincII and PstI sites at the 5 and 3′ ends of the cDNA clone, respectively, were utilized for ligation. This full-length clone was cloned into the KpnI site of the expression vector, using the 5′ and 3′ KpnI sites of the fragment, derived from vector (i.e., pBluescript) and 3′-untranslated sequences, respectively. Stable cell lines were selected as described above.

[4] = target: T3, α1A Human Adrenergic Receptor (Homo sapiens, UniProt P25100); test: as above
T3 construct: expressed in transfected cells; host or cells: LM(tk-) cells
T3 sequence (P25100 1-572): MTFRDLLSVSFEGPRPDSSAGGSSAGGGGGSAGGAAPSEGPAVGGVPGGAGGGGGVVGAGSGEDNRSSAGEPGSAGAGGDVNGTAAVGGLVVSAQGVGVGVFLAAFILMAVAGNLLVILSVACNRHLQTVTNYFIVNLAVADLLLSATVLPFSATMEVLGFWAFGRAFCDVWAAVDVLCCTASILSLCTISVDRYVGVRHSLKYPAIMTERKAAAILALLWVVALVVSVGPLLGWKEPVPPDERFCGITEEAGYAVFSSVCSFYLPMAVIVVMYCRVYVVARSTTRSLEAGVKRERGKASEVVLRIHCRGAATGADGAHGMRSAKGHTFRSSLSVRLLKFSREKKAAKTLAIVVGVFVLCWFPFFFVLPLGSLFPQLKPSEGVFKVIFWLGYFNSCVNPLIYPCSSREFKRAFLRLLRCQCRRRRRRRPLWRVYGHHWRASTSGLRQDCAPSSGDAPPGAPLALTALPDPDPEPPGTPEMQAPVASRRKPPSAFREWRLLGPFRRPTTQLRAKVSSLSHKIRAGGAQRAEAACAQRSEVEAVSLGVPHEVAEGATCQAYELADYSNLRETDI
Description: as §1, §2
(§3) Stable cell lines were selected as described above.

[5] = target: T4, α2C Human Adrenergic Receptor (Homo sapiens, UniProt P18825); test: Equilibrium competition binding, [3H] rauwolscine, membranes of transfected LM(tk-) cells; remark: listed apart in the source
T4 sequence (P18825 1-462): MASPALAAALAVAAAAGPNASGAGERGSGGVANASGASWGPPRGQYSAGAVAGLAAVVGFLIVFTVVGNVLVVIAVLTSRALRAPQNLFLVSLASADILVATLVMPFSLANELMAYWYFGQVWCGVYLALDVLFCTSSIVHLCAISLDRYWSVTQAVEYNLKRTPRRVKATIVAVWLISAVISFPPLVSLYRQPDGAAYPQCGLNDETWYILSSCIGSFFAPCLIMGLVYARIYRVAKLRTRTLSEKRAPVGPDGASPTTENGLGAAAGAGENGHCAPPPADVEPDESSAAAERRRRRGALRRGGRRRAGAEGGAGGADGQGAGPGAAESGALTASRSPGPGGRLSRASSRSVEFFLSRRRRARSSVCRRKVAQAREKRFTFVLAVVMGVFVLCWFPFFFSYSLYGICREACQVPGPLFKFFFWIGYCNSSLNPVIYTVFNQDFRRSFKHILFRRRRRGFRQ

[6] = target: T5, α2B Human Adrenergic Receptor (Homo sapiens, UniProt P18089); test: Equilibrium competition binding, [3H] rauwolscine, membranes of transfected Y-1 cells
T5 construct: expressed in transfected cells; host or cells: Y-1 cells
T5 sequence (P18089 1-450): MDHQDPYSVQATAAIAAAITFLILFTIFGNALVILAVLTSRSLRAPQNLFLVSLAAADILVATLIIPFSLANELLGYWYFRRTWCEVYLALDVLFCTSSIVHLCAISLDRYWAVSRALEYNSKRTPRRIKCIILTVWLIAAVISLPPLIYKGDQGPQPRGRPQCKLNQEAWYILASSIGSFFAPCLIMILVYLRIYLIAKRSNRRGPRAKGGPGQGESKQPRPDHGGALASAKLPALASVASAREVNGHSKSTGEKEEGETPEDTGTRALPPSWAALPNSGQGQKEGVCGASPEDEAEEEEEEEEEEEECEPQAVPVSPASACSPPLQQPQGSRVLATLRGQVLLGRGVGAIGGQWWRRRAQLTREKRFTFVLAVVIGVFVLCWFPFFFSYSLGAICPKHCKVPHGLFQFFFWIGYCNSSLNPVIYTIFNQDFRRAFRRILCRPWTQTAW
Description: as §1, §3, §2

[7] = cloned human receptor, [3H] prazosin, read-out: pKi Alpha-1 B (converted)
[8] = cloned human receptor, [3H] prazosin, read-out: pKi Alpha-1 C (converted)
[9] = cloned human receptor, [3H] prazosin, read-out: pKi Alpha-1 A (converted)
[10] = cloned human receptor, [3H] rauwolscine, read-out: pKi Alpha-2 B (converted)
[11] = cloned human receptor, [3H] prazosin
[12] = cloned human receptor, [3H] rauwolscine

| SMILES | Ki [1] | Ki [2, 7] | Ki [3, 8] | Ki [5] | Ki [6, 10] | Ki [4] | further results |
| --- | --- | --- | --- | --- | --- | --- | --- |
| Cc1cc(NC2=NCCN2)cc2[nH]cnc12 | 126 nM |  |  |  |  |  |  |
| Brc1c(NC2=NCCN2)ccc2c1ncn2C1CCCC1 [Example 26, 1-Cyclopentyl-4-bromo-5-(2-imidazolin-2-ylamino)Benzimidazole] |  | 57500 nM | 9550 nM | 257 nM | 562 nM |  | Ki [4, 9]: 8910 nM |
| CC(C)(C)c1nc2ccc(NC3=NCCN3)c(Br)c2[nH]1 | 295 nM |  |  |  |  |  |  |
| Cn1cnc2cc(NC3=NCCN3)ccc21 | 155 nM |  |  |  |  |  |  |
| c1cc2ncn(C3CCCC3)c2cc1NC1=NCCN1 [Example 27, 3-Cyclopentyl-5-(2-imidazolin-2-ylamino)Benzimidazole] |  | 33900 nM | 6920 nM | 724 nM |  | 8320 nM | Ki [6]: 1020 nM |
| CCc1nc2ccc(NC3=NCCN3)c(Br)c2[nH]1 | 182 nM |  |  |  |  |  |  |
| CC(C)Cn1cnc2c(Br)c(NC3=NCCN3)ccc21 [Example 23, 1-Isobutyl-4-bromo-5-(2-imidazolin-2-ylamino)Benzimidazole] |  | 38000 nM | 380 nM | 229 nM | 309 nM | 5010 nM |  |
| Brc1c(NC2=NCCN2)ccc2c1ncn2Cc1ccccc1 [Example 33, 1-Benzyl-4-bromo-5-(2-imidazolin-2-ylamino)Benzimidazole] |  | 33100 nM | 1450 nM | 162 nM | 13.8 nM |  | Ki [4, 9]: 1820 nM |
| CCCn1cnc2c(Br)c(NC3=NCCN3)ccc21 [Example 14, 1-Propyl-4-bromo-5-(imidazolin-2-ylamino)Benzimidazole] |  |  |  |  |  |  | pKi Alpha-1 B [2, 11]: 4.69; pKi Alpha-1 C [3, 11]: 6.21; pKi Alpha-1 A [4, 11]: 5.63; pKi Alpha-2 C [5, 12]: 6.64; pKi Alpha-2 B [6, 12]: 6.66 |
| CC(C)Cn1cnc2cc(NC3=NCCN3)ccc21 [Example 22, 1-Isobutyl-5-(2-imidazolin-2-ylamino)Benzimidazole] |  | 105000 nM | 1860 nM | 182 nM |  | 10500 nM | Ki [6]: 427 nM |
| NCCn1cnc2c(Br)c(NC3=NCCN3)ccc21 [Example 40, 1-(2-Aminoethyl)-4-bromo-5-(2-imidazolin-2-ylamino)Benzimidazole] |  | 26900 nM | 9120 nM | 2820 nM | 955 nM |  | Ki [4, 9]: 9330 nM |
| Cc1cc2nc[nH]c2cc1NC1=NCCN1 | 214 nM |  |  |  |  |  |  |
| OCCn1cnc2ccc(NC3=NCCN3)c(Br)c21 [Example 39, 3-(2-Hydroxyethyl)-4-bromo-5-(2-imidazolin-2-ylamino)Benzimidazole] |  |  |  | 617 nM | 490 nM | 1580 nM | Ki [2]: 11000 nM; Ki [3]: 4790 nM |
| Brc1c(NC2=NCCN2)ccc2ncn(Cc3ccccc3)c12 [Example 35, 3-Benzyl-4-bromo-5-(2-imidazolin-2-ylamino)Benzimidazole] |  |  |  | 17 nM | 15.8 nM | 309 nM | Ki [2]: 1950 nM; Ki [3]: 794 nM |
| CCCCc1c(NC2=NCCN2)ccc2nc[nH]c12 | 120 nM |  |  |  |  |  |  |
| CCCCc1cc(NC2=NCCN2)cc2[nH]cnc12 | 204 nM |  |  |  |  |  |  |
| c1ccc(Cn2cnc3cc(NC4=NCCN4)ccc32)cc1 [Example 32, 1-Benzyl-5-(2-imidazolin-2-ylamino)Benzimidazole] |  |  |  | 162 nM | 50.1 nM | 3720 nM | Ki [2]: 33100 nM; Ki [3]: 3890 nM |
| c1cc2c(cc1NC1=NCCN1)ncn2CC1CCCCC1 [Example 29, 1-Cyclohexylmethyl-5-(2-imidazolin-2-ylamino)Benzimidazole] |  | 20900 nM | 1410 nM | 490 nM | 363 nM |  | Ki [4, 9]: 912 nM |
| c1ccc(Cn2cnc3ccc(NC4=NCCN4)cc32)cc1 [Example 34, 3-Benzyl-5-(2-imidazolin-2-ylamino)Benzimidazole] |  |  |  | 186 nM | 89.1 nM | 2570 nM | Ki [2]: 12000 nM; Ki [3]: 1350 nM |
| c1cc2c(cc1NC1=NCCN1)ncn2C1CCCC1 [Example 25, 1-Cyclopentyl-5-(2-imidazolin-2-ylamino)Benzimidazole] |  | 44700 nM | 9770 nM | 437 nM |  | 6170 nM | Ki [6]: 646 nM |
| Brc1c(NC2=NCCN2)ccc2ncn(CC3CCCCC3)c12 [Example 31, 3-Cyclohexylmethyl-4-bromo-5-(2-imidazolin-2-ylamino)Benzimidazole] |  |  |  | 38.9 nM | 37.2 nM | 257 nM | Ki [2]: 2140 nM; Ki [3]: 372 nM |
